Species on record: Rattus norvegicus
Assay: DrugMatrix - Regimen: Daily Repeat
Type: toxicity, organism-based, Sprague-Dawley
Parameters: regimen Daily Repeat, gender Male, age 6-8 weeks
Conditions: in vivo, po, route oral GAVAGE, […]; for ABSOLUTE BASOPHIL / ABSOLUTE EOSINOPHIL / ABSOLUTE LYMPHOCYTE / ABSOLUTE MONOCYTE / ABSOLUTE SEGMENTED NEUTROPHIL / BASOPHIL / EOSINOPHIL / ERYTHROCYTE COUNT / HEMATOCRIT / HEMOGLOBIN / LEUKOCYTE COUNT / LYMPHOCYTE / MEAN CORPUSCULAR HEMOGLOBIN / MEAN CORPUSCULAR HEMOGLOBIN CONCENTRATION / MEAN CORPUSCULAR VOLUME / MONOCYTE / NEUTROPHIL / NUCLEATED RED BLOOD CELLS / PLATELET COUNT: tissue Blood; for ALANINE AMINOTRANSFERASE / ALBUMIN / ALKALINE PHOSPHATASE / ASPARTATE AMINOTRANSFERASE / BLOOD UREA NITROGEN / CARBON DIOXIDE / CHLORIDE / CHOLESTEROL / CREATINE PHOSPHOKINASE / CREATININE / GLUCOSE / LACTATE DEHYDROGENASE / LIPASE / PHOSPHORUS / POTASSIUM / SODIUM / TOTAL BILIRUBIN / TOTAL PROTEIN / URIC ACID: tissue Plasma
[1] = 5 mg/kg, 120 h, dose level Low, time 5 day
[2] = 13 mg/kg, 72 h, dose level High, time 3 day
[3] = 13 mg/kg, 120 h, dose level High, time 5 day

SMILES: O=c1oc2ccccc2c(O)c1Cc1c(O)c2ccccc2oc1=O [DICUMAROL]
- ABSOLUTE BASOPHIL [1]: 0 CELLS/uL
- ABSOLUTE EOSINOPHIL [1]: 23.33 CELLS/uL
- ABSOLUTE LYMPHOCYTE [1]: 6534.33 CELLS/uL
- ABSOLUTE MONOCYTE [1]: 0 CELLS/uL
- ABSOLUTE SEGMENTED NEUTROPHIL [1]: 809 CELLS/uL
- BASOPHIL [1]: 0%
- EOSINOPHIL [1]: 0.33%
- ERYTHROCYTE COUNT [1]: 5.38 x10E6/uL
- HEMATOCRIT [1]: 33.9%
- HEMOGLOBIN [1]: 13.03 G/DL
- LEUKOCYTE COUNT [1]: 7.37 x10E3/uL
- LYMPHOCYTE [1]: 88.67%
- MEAN CORPUSCULAR HEMOGLOBIN [1]: 24.27 pg
- MEAN CORPUSCULAR HEMOGLOBIN CONCENTRATION [1]: 38.47 G/DL
- MEAN CORPUSCULAR VOLUME [1]: 63 fL
- MONOCYTE [1]: 0%
- NEUTROPHIL [1]: 11%
- NUCLEATED RED BLOOD CELLS [1]: 0 /100WBC
- PLATELET COUNT [1]: 1062 x10E3/uL
- ALANINE AMINOTRANSFERASE [1]: 70.33 u/L
- ALBUMIN [1]: 4.17 G/DL
- ALKALINE PHOSPHATASE [1]: 492.33 u/L
- ASPARTATE AMINOTRANSFERASE [1]: 90.67 u/L
- BLOOD UREA NITROGEN [1]: 13.67 mg/dL
- CARBON DIOXIDE [1]: 31.67 mmol/L
- CHLORIDE [1]: 100 MEQ/L
- CHOLESTEROL [1]: 66.67 mg/dL
- CREATINE PHOSPHOKINASE [1]: 491.67 u/L
- CREATININE [1]: 0.15 mg/dL
- GLUCOSE [1]: 160.33 mg/dL
- LACTATE DEHYDROGENASE [1]: 134.33 u/L
- LIPASE [1]: 9.33 u/L
- PHOSPHORUS [1]: 9.47 mg/dL
- POTASSIUM [1]: 5.06 MEQ/L
- SODIUM [1]: 142.1 MEQ/L
- TOTAL BILIRUBIN [1]: 0.17 mg/dL
- TOTAL PROTEIN [1]: 6.07 G/DL
- URIC ACID [1]: 0.43 mg/dL
- ABSOLUTE BASOPHIL [2]: 0 CELLS/uL
- ABSOLUTE EOSINOPHIL [2]: 43.33 CELLS/uL
- ABSOLUTE LYMPHOCYTE [2]: 9740.67 CELLS/uL
- ABSOLUTE MONOCYTE [2]: 39.67 CELLS/uL
- ABSOLUTE SEGMENTED NEUTROPHIL [2]: 443 CELLS/uL
- BASOPHIL [2]: 0%
- EOSINOPHIL [2]: 0.33%
- ERYTHROCYTE COUNT [2]: 5.24 x10E6/uL
- HEMATOCRIT [2]: 32.97%
- HEMOGLOBIN [2]: 12.9 G/DL
- LEUKOCYTE COUNT [2]: 10.27 x10E3/uL
- LYMPHOCYTE [2]: 95%
- MEAN CORPUSCULAR HEMOGLOBIN [2]: 24.7 pg
- MEAN CORPUSCULAR HEMOGLOBIN CONCENTRATION [2]: 39.13 G/DL
- MEAN CORPUSCULAR VOLUME [2]: 63.17 fL
- MONOCYTE [2]: 0.33%
- NEUTROPHIL [2]: 4.33%
- NUCLEATED RED BLOOD CELLS [2]: 0 /100WBC
- PLATELET COUNT [2]: 923.67 x10E3/uL
- ALANINE AMINOTRANSFERASE [2]: 65 u/L
- ALBUMIN [2]: 3.83 G/DL
- ALKALINE PHOSPHATASE [2]: 374.33 u/L
- ASPARTATE AMINOTRANSFERASE [2]: 87.33 u/L
- BLOOD UREA NITROGEN [2]: 11 mg/dL
- CARBON DIOXIDE [2]: 35.33 mmol/L
- CHLORIDE [2]: 98 MEQ/L
- CHOLESTEROL [2]: 72 mg/dL
- CREATINE PHOSPHOKINASE [2]: 494.33 u/L
- CREATININE [2]: 0.14 mg/dL
- GLUCOSE [2]: 143.67 mg/dL
- LACTATE DEHYDROGENASE [2]: 159.67 u/L
- LIPASE [2]: 9.33 u/L
- PHOSPHORUS [2]: 11.1 mg/dL
- POTASSIUM [2]: 6.17 MEQ/L
- SODIUM [2]: 142.53 MEQ/L
- TOTAL BILIRUBIN [2]: 0.17 mg/dL
- TOTAL PROTEIN [2]: 5.83 G/DL
- URIC ACID [2]: 0.5 mg/dL
- ABSOLUTE BASOPHIL [3]: 0 CELLS/uL
- ABSOLUTE EOSINOPHIL [3]: 0 CELLS/uL
- ABSOLUTE LYMPHOCYTE [3]: 5152 CELLS/uL
- ABSOLUTE MONOCYTE [3]: 45 CELLS/uL
- ABSOLUTE SEGMENTED NEUTROPHIL [3]: 403 CELLS/uL
- BASOPHIL [3]: 0%
- EOSINOPHIL [3]: 0%
- ERYTHROCYTE COUNT [3]: 5.48 x10E6/uL
- HEMATOCRIT [3]: 33.3%
- HEMOGLOBIN [3]: 12.65 G/DL
- LEUKOCYTE COUNT [3]: 5.6 x10E3/uL
- LYMPHOCYTE [3]: 92%
- MEAN CORPUSCULAR HEMOGLOBIN [3]: 23.1 pg
- MEAN CORPUSCULAR HEMOGLOBIN CONCENTRATION [3]: 38 G/DL
- MEAN CORPUSCULAR VOLUME [3]: 60.75 fL
- MONOCYTE [3]: 1%
- NEUTROPHIL [3]: 7%
- NUCLEATED RED BLOOD CELLS [3]: 1 /100WBC
- PLATELET COUNT [3]: 1032 x10E3/uL
- ALANINE AMINOTRANSFERASE [3]: 67.5 u/L
- ALBUMIN [3]: 3.85 G/DL
- ALKALINE PHOSPHATASE [3]: 329.5 u/L
- ASPARTATE AMINOTRANSFERASE [3]: 96 u/L
- BLOOD UREA NITROGEN [3]: 13 mg/dL
- CARBON DIOXIDE [3]: 32.5 mmol/L
- CHLORIDE [3]: 100 MEQ/L
- CHOLESTEROL [3]: 64 mg/dL
- CREATINE PHOSPHOKINASE [3]: 628 u/L
- CREATININE [3]: 0.18 mg/dL
- GLUCOSE [3]: 150.5 mg/dL
- LACTATE DEHYDROGENASE [3]: 133 u/L
- LIPASE [3]: 11 u/L
- PHOSPHORUS [3]: 9.75 mg/dL
- POTASSIUM [3]: 5.09 MEQ/L
- SODIUM [3]: 145.4 MEQ/L
- TOTAL BILIRUBIN [3]: 0.15 mg/dL
- TOTAL PROTEIN [3]: 6 G/DL
- URIC ACID [3]: 0.45 mg/dL

— ChEMBL document CHEMBL3885881, “DrugMatrix”
